# “Also recorded” adds a separate entry of the source.
# Legend:
# [1] = test system: non-cancer WI38 fibroblast cell line; test: MTT proliferation assay in WI38 fibroblasts; format: cell-based; details: for effect on WI38 proliferation: compared with the NSCLC lines
# [2] = test system: H460 NSCLC human xenograft; test: Histopathology of resected tumors, mitotic index; format: in vivo, NOD/SCID mice
# [3] = test system: NSCLC cancer cell lines H1299, A459, H460; test: MTT proliferation assay, NSCLC cell panel; format: cell-based, Human; details: for EC50: Homo sapiens
# [4] = test system: H460 NSCLC human xenograft; test: H460 NSCLC human xenograft model, tumor growth; format: in vivo, NOD/SCID mice; details: for median tumor volume: day 24, i.p. daily; for median tumor volume / tumor weight smaller than vehicle: losartan 50 mg/kg, astemizole 10 mg/kg; for tumor weight smaller than vehicle: last day of study, i.p. daily, p<0.01
# [5] = mouse, in vivo
# [6] = test system: H460; test: MTT proliferation assay in H460 cells; format: cell-based, Human; details: 3 days
compound,measurement,setting,value
Cc1nc(Nc2ncc(C(=O)Nc3c(C)cccc3Cl)s2)cc(N2CCN(CCO)CC2)n1 [Dasatinib],EC50,"[1]; WI38, MTT, 3 days",sub-micromolar
CCCCc1nc(Cl)c(CO)n1Cc1ccc(-c2ccccc2-c2nn[nH]n2)cc1 [Losartan],G2M arrest in the cell cycle,[2]; histopathology of resected tumors,significant propensity to cause G2M arrest; also recorded: induced more significant G2M arrest
same,mitotic index (MI),"[2]; ratio of mitotic to non-mitotic cells in tumor tissue, vehicle 7",18
same,cytotoxicity,[3]; concentrations up to 100 μM,very little cytotoxicity
same,median tumor volume,[4],"2,463 mm^3"
same,tumor weight smaller than vehicle,[4],50%
same,number of mice with tumors that weigh less than 2.5 g,"[4]; losartan group n = 10, none of the vehicle",Four
same,animal's body weight,[5],no significant alteration
CS(=O)(=O)CCNCc1ccc(-c2ccc3ncnc(Nc4ccc(OCc5cccc(F)c5)c(Cl)c4)c3c2)o1 [Lapatinib],EC50,[3],30 to 40 µM
C=C(c1ccc(C(=O)O)cc1)c1cc2c(cc1C)C(C)(C)CCC2(C)C [Bexarotene],effect on WI38 proliferation,[1],weaker effect on WI38 proliferation
same,EC50,[3],~50 µM
CN1C[C@H](C(=O)N[C@]2(C)O[C@@]3(O)[C@@H]4CCCN4C(=O)[C@H](Cc4ccccc4)N3C2=O)C=C2c3cccc4[nH]cc(c34)C[C@H]21 [Ergotamine],effect on WI38 proliferation,[1],significantly less effect on WI38
same,EC50,[6],26 ± 1 µM
COc1ccc(CCN2CCC(Nc3nc4ccccc4n3Cc3ccc(F)cc3)CC2)cc1 [Astemizole],number of mice with tumors that weighed less than 3.2 g,"[4]; astemizole group n = 9, smallest vehicle tumor 3.2 g",Three
same,median tumor volume,[4],"2,810 mm^3"
same,tumor weight smaller than vehicle,[4],15%
same,animal's body weight,[5],no significant alteration
